# Data reported in the RepoRT retention time repository.
# Assay: RP, Waters ACQUITY UPLC HSS T3, 0.1 mL/min; A: water + 0.01% formic acid; B: acetonitrile + 0.01% formic acid; gradient (min/%B) 0/10 38/45 45/45 55/0 60/0
# Conditions: stereoisomer not certain
row,Structure (SMILES),LC retention time
1,Cc1nnc(-c2ccccc2)c(=O)n1N [Metamitron],8.55 min
2,CC(C)N(C(=O)COc1nnc(C(F)(F)F)s1)c1ccc(F)cc1 [Flufenacet],41.1 min
3,CCCCCC=CCC(O)C=CC=CC=CC(O)CCCC(=O)O (centres undefined) [Leukotriene B4],39.5 min
4,Nc1c(Cl)c(F)nc(OCC(=O)O)c1Cl [Fluroxypyr],14.4 min
5,Cn1c(=O)c2c(ncn2C)n(C)c1=O [Caffeine],5.71 min
6,CC(=O)C1CCC2C3CCC4CC(O)CCC4(C)C3CCC12C (centres undefined) [Allopregnanolone],43.9 min
7,CCCOC(=O)c1ccc(O)cc1 [Propylparaben],22 min
8,Cc1ccc(NC(=O)N(C)C)cc1Cl [Chlortoluron],20.5 min
9,CC12CCC(=O)C=C1CCC1C2CCC2(C)C(O)CCC12 (centres undefined) [Testosterone],28.9 min
10,Cc1cnc2c(C(=O)O)c(Cl)ccc2c1 [Quinmerac],8.87 min
11,COc1cc2c(c3oc(=O)c4c(c13)CCC4=O)C1C=COC1O2 (centres undefined) [Aflatoxin B1],17.5 min
12,CNC(=O)N(C)c1nc2ccccc2s1 [Methabenzthiazuron],19.4 min
13,C#CC1(O)CCC2C3CCc4cc(O)ccc4C3CCC21C (centres undefined) [Ethinylestradiol],31.6 min
14,CS(=O)(=O)c1cc(C(F)(F)F)ccc1C(=O)c1cnoc1C1CC1 [Isoxaflutole],35.3 min
15,CC(=O)Oc1ccccc1C(=O)O [Acetylsalicylic acid],8.55 min
16,CC(C(=O)O)c1cccc(C(=O)c2ccccc2)c1 (centres undefined) [Ketoprofen],28.3 min
17,COC(=O)N(OC)c1ccccc1COc1ccn(-c2ccc(Cl)cc2)n1 [Pyraclostrobine],43.5 min
18,NC(Cc1c[nH]c2ccccc12)C(=O)O (centres undefined) [Tryptophan],5.4 min
19,COc1ccc(C(=O)c2ccccc2)c(O)c1 [Oxybenzone],40.6 min
20,CCCN(CCC)c1c([N+](=O)[O-])cc(S(N)(=O)=O)cc1[N+](=O)[O-] [Oryzalin],41.2 min
21,CS(=O)(=O)c1ccc(C(=O)C2C(=O)CCCC2=O)c([N+](=O)[O-])c1 [Mesotrione],16.5 min
22,Oc1ccccc1-c1ccccc1 [2-Phenylphenol],30.2 min

row,Structure (SMILES),LC retention time
1,Cc1cc(C2CC2)nc(Nc2ccccc2)n1 [Cyprodinil],33.2 min
2,CC(C)Cc1ccc(C(C)C(=O)O)cc1 (centres undefined) [Ibuprofen],39.9 min
3,C#CC(C)(C)NC(=O)c1cc(Cl)cc(Cl)c1 [Propyzamide],35.6 min
4,CNC1CCC(c2ccc(Cl)c(Cl)c2)c2ccccc21 (centres undefined) [Sertraline],24.3 min
5,"CNC(=O)Nc1ccc(Cl)c(Cl)c1 [1-(3,4-Dichlorophenyl)-3-methylurea]",20.5 min
6,CNC1=C(c2cccc(C(F)(F)F)c2)C(=O)C(c2ccccc2)O1 (centres undefined) [Flurtamone],34.1 min
7,COc1nc(C)nc(NC(=O)NS(=O)(=O)c2ccccc2CCC(F)(F)F)n1 [Prosulfuron],34.5 min
8,CC12CCC(=O)C=C1CCC1C2C(O)CC2(C=O)C(C(=O)CO)CCC12 (centres undefined) [Aldosterone],13.8 min
9,CCCOc1nn(C(=O)NS(=O)(=O)c2ccccc2C(=O)OC)c(=O)n1C [Propoxycarbazone],22.1 min
10,Oc1cc(Cl)ccc1Oc1ccc(Cl)cc1Cl [Triclosan],43.8 min
11,NCCc1ccc(O)c(O)c1 [Dopamine],3.88 min
12,CC12CCC(=O)C=C1CCC1C2C(=O)CC2(C)C1CCC2(O)C(=O)CO (centres undefined) [Cortisone],16.1 min
13,Nc1cnn(-c2ccccc2)c(=O)c1Cl [Chloridazon],9.25 min
14,COc1ccc(C(=CC(=O)N2CCOCC2)c2ccc(Cl)cc2)cc1OC [Dimethomorph],32.7 min
15,CCOC(=O)C1CC(=O)C(=C(O)C2CC2)C(=O)C1 (centres undefined) [Trinexapac-ethyl],26.5 min
16,CCCCCC(O)C=CC1C(O)CC(O)C1CC=CCCCC(=O)O (centres undefined) [Prostaglandin F2a],25.6 min
17,CN(C)C(=O)Nc1ccc(Cl)c(Cl)c1 [Diuron],23.7 min
18,CCNc1nc(NC(C)C)nc(SC)n1 [Ametryn],20.1 min
19,COc1cc(OC)n2nc(NS(=O)(=O)c3c(C(F)(F)F)ccnc3OC)nc2n1 [Pyroxsulam],20.3 min
20,O=[N+]([O-])/N=C1\NCCN1Cc1ccc(Cl)nc1 [Imidacloprid],8.57 min
21,CNCCC(Oc1ccc(C(F)(F)F)cc1)c1ccccc1 (centres undefined) [Fluoxetine],23.7 min
22,CCCCCC(O)C=CC1C(O)CC(=O)C1CC=CCCCC(=O)O (centres undefined) [Prostaglandin E2],26.5 min

row,Structure (SMILES),LC retention time
1,CCC(C)(CC)c1cc(NC(=O)c2c(OC)cccc2OC)on1 [Isoxaben],39 min
2,CN1COCN(Cc2cnc(Cl)s2)C1=N[N+](=O)[O-] [Thiamethoxam],6.97 min
3,Cc1ccc(C(=O)O)c(Cl)c1 [2-chloro-4-methylbenzoic acid],44.3 min
4,CCc1cccc(C)c1N(C(=O)CCl)C(C)COC (centres undefined) [Metolachlor],26.7 min
5,CCNc1nc(N)nc(Cl)n1 [Atrazine-desisopropyl],6.98 min
6,CCS(=O)(=O)c1nnc(N(C)C(=O)NC)s1 [Ethidimuron],9.06 min
7,"NC(=O)Nc1ccc(Cl)c(Cl)c1 [1-(3,4-Dichlorophenyl)urea]",16.9 min
8,O=C(O)c1ccccc1O [Salicylic acid],8.4 min
9,CN1C(=O)CCC1c1cccnc1 (centres undefined) [Cotinine],4.31 min
10,CCCN(CCOc1c(Cl)cc(Cl)cc1Cl)C(=O)n1ccnc1 [Prochloraz],38.7 min
11,COP(=S)(S)OC [Dimethyldithiophosphate],2.95 min
12,N#CCNC(=O)c1cnccc1C(F)(F)F [Flonicamid],7.52 min
13,O=C(C=CC=Cc1ccc2c(c1)OCO2)N1CCCCC1 [Piperine],36.4 min
14,COc1ccc2c3c1OC1C(O)C=CC4C(C2)N(C)CCC341 (centres undefined) [Codeine],5.12 min
15,CC(C)NC(=O)N1CC(=O)N(c2cc(Cl)cc(Cl)c2)C1=O [Iprodione],39.9 min
16,CC12CCC3C(CC=C4CC(O)CCC43C)C1CCC2=O (centres undefined) [Dehydroepiandrosterone],31.7 min
17,"Cc1cc(Cl)ccc1OCC(=O)O [2,4-mcpa]",17.2 min
18,CCNc1nc(Cl)nc(NCC)n1 [Simazine],14.5 min
19,CCOC(=O)CC(SP(=S)(OC)OC)C(=O)OCC (centres undefined) [Malathion],40.8 min
20,COc1cc(OC)nc(NC(=O)NS(=O)(=O)N(C)S(C)(=O)=O)n1 [Amidosulfuron],21.2 min
